Consider 13 molecules from ChEMBL document CHEMBL1201862, “PubChem BioAssay data set” (2004).

Holding throughout (assay): NCI anticancer screen, dose series, 48 h
The subject of test [1] is SF-539.
Test [2] deals with BT-549.
Test [3] deals with Hs-578T.
Test [4] deals with NCI-H226.
Test [5] relates to HCT-15.
Test [6] deals with PC-3.
The subject of test [7] is SF-268.
In test [8] the test system is NCI-H460.
Test [9] concerns MDA-N.
Test [10] concerns EKVX.
Test [11] deals with A549.
The test system of test [12] is RXF 393.
Test [13] deals with SK-MEL-28.
Test [14] relates to A498.
Test [15] has as its system MDA-MB-435.
Test [16] relates to SNB-75.
Test [17] deals with T47D.
Test [18] deals with DLD-1.

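A five-concentration, 48-hour dose response in 96-well plates underlies each endpoint, interpolated linearly between surrounding concentrations. GI50: concentration for 50% inhibition of growth.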 Active and inactive are the calls of the source. Rule as the data show it: active = GI50 up to about 1.1 µM and inactive = higher.

Consider `O=C(Cc1ccccc1)Nc1nc2ccc(Cl)cc2c2nc(-c3ccco3)nn12`, for which the GI50 is 7.69 µM (inactive) in [1]; > 100 µM (inactive) in [2]; 11 µM (inactive) in test [3]; > 35.6 µM (inactive) in test [4]; more than 100 µM in test [5]; > 100 µM (inactive) in [6]. Moreover, the GI50 in test [7] is > 62.8 µM (inactive); in test [8], > 100 µM (inactive); in [9], > 100 µM (inactive); in test [10], > 70.8 µM (inactive); in test [11], > 100 µM (inactive); in test [12], 17.7 µM (inactive). Besides, the GI50 in [13] is > 100 µM (inactive); in [14], > 60.3 µM (inactive); in test [15], > 100 µM (inactive); in [16], 5.02 µM (inactive); in test [17] it was > 100 µM (inactive).
Regarding `CC1(C)CC(=O)c2c(nc3c4c([nH]c(-c5ccc([N+](=O)[O-])cc5)c24)CC(C)(C)C3)C1`, the GI50 in test [1] was 65.3 µM (inactive); in test [2], 34 µM (inactive); in test [3], 56.5 µM (inactive); in test [4] it was 43.8 µM (inactive); in test [5], 25.2 µM; in [6] it was 31.7 µM (inactive). The GI50 in [7] is 50.9 µM (inactive); in test [8], 38.5 µM (inactive); in test [9], 33 µM (inactive); in test [10] it was 61.4 µM (inactive); in test [11] it was 27.6 µM (inactive); in test [12] it was 25.8 µM (inactive). The GI50 in [13] is 60.8 µM (inactive); in test [14] it was 4.26 µM (inactive); in [15], 24.7 µM (inactive); in [16], 24.8 µM (inactive); in [17] it was 26.9 µM (inactive).
As to `CC(NNC(=O)c1cc[n+]([BH2-]C#N)cc1)c1ccc(Cl)cc1Cl` (stereo not drawn), the GI50 was 53.7 µM (inactive) in test [1]; 46.2 µM (inactive) in [2]; 39.5 µM (inactive) in test [3]; 14.2 µM (inactive) in test [4]; 44.8 µM in [5]; 33.6 µM (inactive) in test [6]. In addition, the GI50 in [7] was 41.2 µM (inactive); in test [8] it was 44.1 µM (inactive); in [9], > 100 µM (inactive); in [10] it was 24.5 µM (inactive); in [11], 37.2 µM (inactive); in [12] it was 43.3 µM (inactive). For the same molecule, the GI50 is 44.5 µM (inactive) in [13]; > 100 µM (inactive) in test [14]; 42.1 µM (inactive) in test [15]; 31.8 µM (inactive) in test [16]; 34.5 µM (inactive) in test [17].
Turning to `CN(C)c1cccc(/C=C(\C#N)c2ccccc2)c1`, the GI50 in test [1] is 0.587 µM (active); in [2], 21.3 µM (inactive); in test [3], 0.723 µM (active); in test [4], 2.55 µM (inactive); in test [5], 0.219 µM; in [6], 1.12 µM (active). Further, the GI50 was 8.77 µM (inactive) in [7]; 0.527 µM (active) in test [8]; 0.0451 µM (active) in test [9]; 2.14 µM (inactive) in [10]; 2.61 µM (inactive) in [11]; 0.706 µM (active) in test [12]. Besides, the GI50 was 7.33 µM (inactive) in [13]; 2.11 µM (inactive) in test [14]; 0.0478 µM (active) in test [15]; 1.39 µM (inactive) in [16]; 0.525 µM (active) in test [17].
In the case of `Clc1ccc(OCc2nnc3sc(-c4ccc(-c5ccc(Cl)cc5Cl)o4)nn23)c(Cl)c1`, the GI50 was 14.8 µM (inactive) in test [1]; 21.4 µM (inactive) in test [2]; 19.7 µM (inactive) in test [3]; 20.4 µM (inactive) in test [4]; 20.7 µM in test [5]; 18.1 µM (inactive) in [6]. For the same molecule, the GI50 is 15.6 µM (inactive) in [7]; 20.4 µM (inactive) in test [8]; 24.2 µM (inactive) in [9]; 14.7 µM (inactive) in [10]; 21.6 µM (inactive) in [11]; 14.8 µM (inactive) in test [12]. In addition, the GI50 in test [13] is 23.8 µM (inactive); in test [14] it was 17.4 µM (inactive); in test [15], 32.8 µM (inactive); in test [16] it was 15 µM (inactive); in [17], 19.5 µM (inactive).
Consider `OC[P+](CO)(CO)C12CC3CC(CC(C3)C1)C2`, for which the GI50 in test [1] is > 100 µM (inactive); in [2] it was > 100 µM (inactive); in test [3], > 100 µM (inactive); in test [4], > 100 µM (inactive); in test [5], more than 89.5 µM; in test [6], > 100 µM (inactive). The GI50 in [7] was > 100 µM (inactive); in test [8], 76.4 µM (inactive); in test [9], > 100 µM (inactive); in test [10], > 100 µM (inactive); in test [11] it was > 100 µM (inactive); in [12], > 63.2 µM (inactive). In addition, the GI50 in [13] was > 100 µM (inactive); in [14] it was > 100 µM (inactive); in [15] it was > 100 µM (inactive); in test [16] it was > 64.4 µM (inactive); in [17], > 100 µM (inactive).
For `CC1(C)C=CC(=O)C(O)C(C)(C)C1=O` (stereo not drawn), the GI50 in test [1] is 73.6 µM (inactive); in [2], 68.1 µM (inactive); in test [3] it was 28.8 µM (inactive); in [4], > 100 µM (inactive); in test [5], 51.2 µM; in test [6], > 100 µM (inactive). Besides, the GI50 in test [7] is 30.1 µM (inactive); in test [8], 29.7 µM (inactive); in test [9], 52.8 µM (inactive); in test [10], > 100 µM (inactive); in test [11], > 100 µM (inactive); in [12], 66.5 µM (inactive). The GI50 in [13] was > 100 µM (inactive); in test [14], > 100 µM (inactive); in [15] it was 53.3 µM (inactive); in [16] it was 38.7 µM (inactive); in test [17], > 100 µM (inactive).
As for `COc1cc(C(=O)C2CC3(CCC2(O)c2cc(OC)c(OC)c(OC)c2)CC(=O)Nc2ccccc2C3=O)cc(OC)c1OC` (stereo not drawn), the GI50 in test [1] was > 100 µM (inactive); in test [2], > 100 µM (inactive); in test [3] it was 91 µM (inactive); in test [4], > 100 µM (inactive); in test [5], 50.6 µM; in test [6], 42.6 µM (inactive). The GI50 in test [7] is > 100 µM (inactive); in test [8], 21.5 µM (inactive); in test [9], > 100 µM (inactive); in test [10] it was > 100 µM (inactive); in test [11], > 100 µM (inactive); in test [12], 99.5 µM (inactive). Besides, the GI50 in test [13] was > 100 µM (inactive); in test [14], > 100 µM (inactive); in test [15] it was > 100 µM (inactive); in [16], 24.5 µM (inactive); in test [17], 36.6 µM (inactive).
For the molecule `Cc1c(S(=O)(=O)c2ccccc2)c(N)n(CCN(C)C)c1C`, the GI50 is 28.9 µM (inactive) in test [1]; 36.1 µM (inactive) in test [2]; > 100 µM (inactive) in test [3]; > 100 µM (inactive) in test [4]; more than 100 µM in test [5]; 86.9 µM (inactive) in test [6]. Further, the GI50 in [7], in test [8], in [9], in test [10], in test [11] and in [12] was > 100 µM (inactive) in each case. The GI50 in [13], in test [14], in test [15], in [16] and in test [17] was > 100 µM (inactive) in each case.
For `CCOC(=O)/C(SC#N)=C(/N)N1CCCC1`, the GI50 is > 100 µM (inactive) in test [1]; > 100 µM (inactive) in [2]; > 100 µM (inactive) in test [3]; > 100 µM (inactive) in [4]; more than 100 µM in test [5]; > 100 µM (inactive) in test [6]. Also, the GI50 in [7], in [8], in test [9], in [10], in test [11] and in test [12] was > 100 µM (inactive) in each case. The GI50 in test [13] is > 100 µM (inactive); in [14], > 60 µM (inactive); in test [15], > 100 µM (inactive); in test [16] it was > 94.8 µM (inactive); in test [17] it was > 100 µM (inactive).
For the molecule `COc1cc(-c2cc(O)c3cc4c(cc3n2)OCO4)cc(OC)c1OC`, the GI50 in [1] is 54.8 µM (inactive); in [5], more than 100 µM; in test [8], > 100 µM (inactive); in test [10], > 100 µM (inactive); in test [11], > 100 µM (inactive); in test [13], > 100 µM (inactive). For the same molecule, the GI50 in test [18] and in test [16] was > 100 µM (inactive) each time.
`CNC(=S)N/N=C(\C)c1nc2cccnc2[nH]1`: the GI50 was 27.7 µM (inactive) in test [1]; 27.9 µM (inactive) in test [2]; > 50 µM (inactive) in test [3]; 38.1 µM (inactive) in [4]; 29.2 µM in test [5]; 48.5 µM (inactive) in [6]. For the same molecule, the GI50 is 37.7 µM (inactive) in test [7]; 29.9 µM (inactive) in test [8]; > 100 µM (inactive) in test [9]; 47 µM (inactive) in test [10]; 31.1 µM (inactive) in [11]; 62.2 µM (inactive) in [12]. Also, the GI50 was 82.6 µM (inactive) in test [13]; > 100 µM (inactive) in [14]; 77.1 µM (inactive) in test [15]; > 70.6 µM (inactive) in test [16]; 43.5 µM (inactive) in test [17].
With `CC(=O)Nc1ccc(C(=O)NN2C(=O)C(Cl)C2c2cccc([N+](=O)[O-])c2)cc1` (stereo not drawn), the GI50 in test [1], in test [4], in [7], in [8], in test [11] and in test [13] was > 100 µM (inactive) in each case. Besides, the GI50 in test [18] and in test [16] was > 100 µM (inactive) throughout.
